Laboratory results: patent US20240116973A1, “MODIFIED OLIGONUCLEOTIDES” (ALNYLAM PHARMACEUTICALS, INC., priority 2021, published 2024)

What was measured:
[1] = system: adenosine deaminase; assay: Adenosine deaminase assay in human liver S9 fractions; format: in vitro ADME; conditions: 1 μM nucleoside, 1 mg/mL human liver S9, pH 7.4, with/without 1 mM NADPH, up to 2 hours, LC-MS
Text: In the adenosine deaminase assays, 2′-fluoroadenosie was used as a positive control for the deaminase activity: […]

[2] = target: T1, human mitochondrial DNA polymerase POLG (Homo sapiens, UniProt P54098, D198A/E200A); assay: POLG (Pol-γ) primer extension (polymerase incorporation) assay; format: biochemical; conditions: single NTP 100 μM or 1 mM, 37° C., 30 min, IEX-HPLC fluorescence
T1 construct: lab of Prof; William Copeland (National Institute of Environmental Health Science, Durham, NC, USA)
T1 sequence (P54098 26-1239 D198A/E200A limits assumed): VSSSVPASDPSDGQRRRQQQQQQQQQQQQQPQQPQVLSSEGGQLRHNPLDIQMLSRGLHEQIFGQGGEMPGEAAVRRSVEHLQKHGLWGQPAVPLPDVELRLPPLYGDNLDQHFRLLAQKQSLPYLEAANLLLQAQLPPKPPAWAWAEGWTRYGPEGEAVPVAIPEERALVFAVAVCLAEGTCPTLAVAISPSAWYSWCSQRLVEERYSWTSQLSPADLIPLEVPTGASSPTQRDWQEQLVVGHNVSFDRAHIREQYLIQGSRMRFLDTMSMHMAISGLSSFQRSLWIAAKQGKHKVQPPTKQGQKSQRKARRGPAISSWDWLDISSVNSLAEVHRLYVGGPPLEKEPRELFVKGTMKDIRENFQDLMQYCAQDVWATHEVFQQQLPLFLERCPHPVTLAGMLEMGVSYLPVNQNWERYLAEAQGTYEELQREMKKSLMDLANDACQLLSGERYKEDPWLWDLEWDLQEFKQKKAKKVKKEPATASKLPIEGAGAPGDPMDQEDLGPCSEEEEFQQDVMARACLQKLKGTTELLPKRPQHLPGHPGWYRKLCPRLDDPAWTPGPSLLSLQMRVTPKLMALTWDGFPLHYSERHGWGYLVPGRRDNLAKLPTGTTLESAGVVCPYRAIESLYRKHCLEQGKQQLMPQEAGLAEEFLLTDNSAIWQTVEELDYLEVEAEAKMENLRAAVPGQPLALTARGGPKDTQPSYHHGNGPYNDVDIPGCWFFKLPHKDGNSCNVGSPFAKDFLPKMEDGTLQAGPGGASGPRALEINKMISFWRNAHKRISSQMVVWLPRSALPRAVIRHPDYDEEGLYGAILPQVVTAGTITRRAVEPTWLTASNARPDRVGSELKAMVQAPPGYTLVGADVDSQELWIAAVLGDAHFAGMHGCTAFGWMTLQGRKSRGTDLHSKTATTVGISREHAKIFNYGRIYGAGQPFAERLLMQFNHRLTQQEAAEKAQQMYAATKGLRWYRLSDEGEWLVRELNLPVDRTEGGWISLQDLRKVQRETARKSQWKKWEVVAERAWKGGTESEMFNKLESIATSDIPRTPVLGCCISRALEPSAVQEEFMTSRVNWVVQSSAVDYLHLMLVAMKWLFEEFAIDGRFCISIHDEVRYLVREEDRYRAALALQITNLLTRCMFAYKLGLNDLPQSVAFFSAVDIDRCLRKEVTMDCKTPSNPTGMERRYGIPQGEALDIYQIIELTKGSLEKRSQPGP
Procedure: (§1) Purified exonuclease activity-deficient human mitochondrial DNA polymerase POLG was obtained from the lab of Prof. William Copeland (National Institute of Environmental Health Science, Durham, NC, USA). Human mitochondrial POLRMT was purchased from Indigo Biosciences (Cat #MV100-40).
Buffer A was 20 mM sodium phosphate, 15% ACN, pH 11; and buffer B was 20 mM sodium phosphate, 15% ACN, 1 M NaBr, pH 11. […] Briefly, a 5′-fluorescently labeled primer and template were incubated […], and the primer extension reaction was monitored via fluorescence detection ion-exchange high-performance liquid chromatography.

[3] = target: T2, human mitochondrial RNA polymerase POLRMT (Homo sapiens, UniProt O00411); assay: POLRMT primer extension (polymerase incorporation) assay; format: biochemical; conditions: single NTP 100 μM or 1 mM, 37° C., 30 min, IEX-HPLC fluorescence
T2 construct: purchased Indigo Biosciences MV100-40
Text: as §1, with “#MV100-40). Atto-425-labelled DNA and RNA primers were synthesized in house; DNA templates were obtained from IDT.” for “#MV100-40).”
The assays are designed for single NT addition on appropriate template/primer sets: • Atto-425 labeled primers allow for high sensitivity fluorescence detection with very low reaction volumes • Analytical IEX-HPLC with fluorescence detection for optimal resolution of primer-extended products—especially important in competition mixtures • Assays can be applied for the assessment of incorporation efficiency of novel chemistries.
Reaction conditions for the POLG incorporation assays were as follows: 100 nM DNA template, 100 nM 5′-Atto-425-labelled DNA primer, 40 units POLG, 100 μM or 1 mM NTP substrate in 20 mM Tris-HCl, pH 8.0, 2 mM β-mercaptoethanol, 0.1 mg/mL bovine serum albumin, 10 mM MgCl2. Reactions were incubated at 37° C. for 30 min. Reactions were quenched by heating the reaction mixture to 85° C. for 5 min. The reaction mixtures were diluted with water to a final primer concentration of approximately 2.5 nM and analysed by IEX-HPLC with an attached fluorescence detector (excitation wavelength: 436 nm, emission wavelength: 485 nm) and a Dionex BioLCDNAPac PA200 4×250 mm (8 μm particle size) column. […] The reaction mixtures were diluted with water to a final primer concentration of approximately 2.5 nM and analysed by IEX-HPLC as described above, except that the gradient was 35% to 40% buffer B in 16 min.
Recognition of 2′F—N6MeA NTPs by POLRMT and PolGamma: Incorporation of 2′F—N6MeA, RNA, and 2′-F-RNA NTP monomers were evaluated in a previously reported in vitro primer extension assays catalyzed by the human mitochondrial RNA polymerase POLRMT and human mitochondrial DNA polymerase PolGamma. […]

T2 sequence (O00411 42-1230): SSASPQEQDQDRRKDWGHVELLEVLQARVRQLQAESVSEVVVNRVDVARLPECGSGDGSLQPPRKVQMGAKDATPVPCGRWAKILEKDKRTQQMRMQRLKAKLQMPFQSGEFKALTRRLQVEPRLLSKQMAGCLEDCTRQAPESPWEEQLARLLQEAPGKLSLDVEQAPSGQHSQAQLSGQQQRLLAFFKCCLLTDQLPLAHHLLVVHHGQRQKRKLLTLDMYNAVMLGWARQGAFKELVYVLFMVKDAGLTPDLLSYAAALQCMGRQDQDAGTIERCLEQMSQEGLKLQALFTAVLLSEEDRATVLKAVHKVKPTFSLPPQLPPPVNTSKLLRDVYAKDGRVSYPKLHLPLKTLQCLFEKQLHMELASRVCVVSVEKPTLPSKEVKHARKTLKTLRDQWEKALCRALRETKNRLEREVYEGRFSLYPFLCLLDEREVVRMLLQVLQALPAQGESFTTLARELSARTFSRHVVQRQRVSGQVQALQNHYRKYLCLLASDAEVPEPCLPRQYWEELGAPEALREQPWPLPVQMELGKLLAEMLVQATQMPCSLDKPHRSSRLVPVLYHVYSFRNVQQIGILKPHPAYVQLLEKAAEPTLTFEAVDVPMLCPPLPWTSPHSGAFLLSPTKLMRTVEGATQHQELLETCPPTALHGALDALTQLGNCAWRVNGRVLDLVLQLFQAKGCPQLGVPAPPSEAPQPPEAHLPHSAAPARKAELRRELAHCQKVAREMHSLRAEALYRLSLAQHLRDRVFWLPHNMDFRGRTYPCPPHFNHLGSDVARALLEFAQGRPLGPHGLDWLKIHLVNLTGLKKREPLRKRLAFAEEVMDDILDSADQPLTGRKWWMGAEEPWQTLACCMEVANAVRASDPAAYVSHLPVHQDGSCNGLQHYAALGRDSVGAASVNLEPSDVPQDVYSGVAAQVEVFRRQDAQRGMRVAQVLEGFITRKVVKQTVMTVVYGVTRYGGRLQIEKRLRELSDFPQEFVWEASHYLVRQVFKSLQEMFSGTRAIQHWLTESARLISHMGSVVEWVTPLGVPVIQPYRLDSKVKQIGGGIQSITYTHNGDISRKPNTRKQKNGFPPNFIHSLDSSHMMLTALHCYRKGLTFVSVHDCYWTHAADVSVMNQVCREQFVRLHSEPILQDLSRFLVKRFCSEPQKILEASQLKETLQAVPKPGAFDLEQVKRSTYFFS

## Nc1ncnc2c1ncn2[C@@H]1O[C@H](CO)[C@H](O)C1F (stereo partly shown) [2′-fluoro-adenosine, reference compound]
[1]
  Deaminated metabolite (adenine to inosine conversion): formation of deaminated metabolite

## CNc1ncnc2c1ncn2[C@@H]1O[C@H](COP(=O)(O)OP(=O)(O)OP(=O)(O)O)[C@@H](O)[C@H]1F [2′Fluoro-N6Methyl-Atp triphosphate, ((2R,3R,4R,5R)-4-fluoro-3-hydroxy-5-(6-(methylamino)-9H-purin-9-yl)tetrahydrofuran-2-yl)methyl triphosphate]
[2]
  Pol-γ Incorporation: Yes
[2]; listed as 2′F—N6MeA NTP
  Pol-γ Incorporation: good substrate
[3]
  PolRMT Incorporation: Yes
[3]; listed as 2′F—N6MeA NTP
  PolRMT Incorporation: good substrate

## COC1C(O)[C@@H](CO)O[C@H]1n1cnc2c(NC(C)C)ncnc21 (stereo partly drawn) [Compound 45, (2R,5R)-2-(hydroxymethyl)-5-[6-(isopropylamino)purin-9-yl]-4-methoxy-tetrahydrofuran-3-ol]
[1]
  Deaminated metabolite (adenine to inosine conversion): no deaminated metabolites were observed

## Nc1ncnc2c1ncn2[C@@H]1O[C@H](COP(=O)(O)OP(=O)(O)OP(=O)(O)O)[C@@H](O)[C@H]1O [rATP, reference compound]
[3]
  PolRMT Incorporation: efficiently incorporated
